Data from a melting point compilation (Tetko et al.; mined from patent text by program, amines drawn as free bases though some values may be those of a salt).
Starred links: 1 amine or outer side, 2 acyl side, 3 side chain; linkers in the order of their positions; H or OH if unused. Residues, ends and D or L forms follow the SMILES beside them. *: point of attachment. Glutaryl = O=C(CCCC(=O)[*:2])[*:1]; NHPr = CCCN*; For = O=C*

| Compound | melting point [°C] |
| --- | --- |
| c1cc(-c2nccs2)nc(C2OCCO2)c1 | 71 |
| CC(C)n1nc(-c2sc(NC(=O)c3ccccc3C(F)(F)F)nc2-c2ccccc2)ccc1=O | 219 to 220 |
| O=[N+]([O-])c1ccccc1/C=C/c1ccc(Cl)cc1[N+](=O)[O-] | 158 to 159 |
| CS(=O)(=O)c1ccc(-c2cc(C#N)c(Br)nc2-c2ccc(F)cc2)cc1 | 230 to 232 |
| CC(=O)NCc1nc(-c2ccccc2)c(-c2ccccc2)o1 | 58 to 60 |
| NC(=O)c1c(N)cccc1OCCO | 149 to 151 |
| CC(=O)Nc1nc(CCc2ccc(N)cc2)c(C(=O)Nc2ccccc2)s1 | 104 to 105 |
| Cn1c(=O)c(-c2ccc(Cl)cc2Cl)cc2c3cc(-c4ccn[nH]4)ccc3[nH]c21 | 246 to 250 |
| CCC(=O)c1ccc(O)c(C)c1 | 83 to 85 |
| N#Cc1ccsc1N=Cc1ccc([N+](=O)[O-])s1 | 192 to 194 |
| CCCNC(=O)C1CCCN1C(=O)C(C)NC(=O)C(C)NC(=O)CCCC(=O)O (stereo not drawn) (Glutaryl-Ala-Ala-Pro-NHPr; configuration not given here) | 131 to 134 |
| COC(=O)CCc1ccc(OCCSCCO)cc1 | 47 to 48 |
| Cc1ccc2c(c1)c(O)c(C(=O)NC1CCCCC1)c(=O)n2Cc1ccc(F)cc1 | 156 |
| O=C(O)CC1CSc2sccc2C1=O (stereo not drawn) | 124 to 127 |
| Cc1ccc(NC(=N)c2ccccc2)cc1NC(=O)/C=C/c1ccccc1C(F)(F)F | 220 to 222 |
| Ic1ccc(N(c2ccccc2)c2ccccc2)cc1 | 102 to 104 |
| NC(=S)Cc1cccc(-c2nc(=O)c3ccccc3s2)n1 | 257 |
| NC(=O)CCC(N)C(=O)NCC(=O)NCC(=O)NC(CO)C(=O)NC(CC(N)=O)C(=O)NC(Cc1ccccc1)C(N)=O (stereo not drawn) (H-QGGSNF-NH2; configuration not given here) | 202 to 204 |
| O=C(c1ccc(Br)cc1)c1cccc2cc[nH]c12 | 162 to 164 |

| Compound | melting point [°C] |
| --- | --- |
| O=C(Nc1cccc(C(F)(F)F)c1)c1cccc2cc(Oc3cc(CCl)ncn3)ccc12 | 178 to 181 |
| NC(=O)CCn1c(=S)sc2ccc(Cl)cc21 | 215 to 217 |
| CCCCC(CC)Cn1c(=O)nc(N(C)C)n(C)c1=O (stereo not drawn) | 74 to 75 |
| CN(CCc1cccc(OCc2ccccc2)c1)c1cnc(-c2ccccc2)c(-c2ccccc2)n1 | 78 to 78.5 |
| CSc1cc(Oc2cccc(C(F)(F)F)c2)nc(C(=O)NN)c1 | 149 to 151 |
| BrCc1cc(CBr)cc(CBr)c1 | 95.5 to 97.5 |
| O=C(c1ccc(I)cc1)c1ccc2nc(Cl)nc(-c3cccc(Cl)c3)c2c1 | 153 |
| O=CNC(CC(=O)O)C(=O)NC(Cc1ccccc1)C(=O)O (stereo not drawn) (For-Asp-Phe-OH; configuration not given here) | 180 to 182 |
| O=C(NC(=NCCCc1c[nH]cn1)NCCSCc1csc(N=C2NCCCN2)n1)c1ccccc1 | 175 to 176 |
| Cn1ncnc1COc1nn2c(-c3cccnc3)nncc2c1-c1ccccc1F | 164 to 166 |
| Cc1cc2nc(Cl)c3cccnc3n2n1 | 202 |
| CC(C)COC[C@H](CC(C)C)NC(=O)[C@H]1O[C@@H]1C(=O)O | 63 |
| CC(C)OC(=O)c1ncn2c1cnc1ccccc12 | 205 to 206 |
| Fc1ccc(Nc2ncnc3cnc(N4CCCCCC4)nc23)cc1Cl | 87 to 90 |
| Cc1cccnc1-n1ccnc1S(=O)Cc1ccccc1N (stereo not drawn) | 112 to 114 |
| O=C1CC(c2ccc(Cl)cc2)ON1CC(O)CN1CCOCC1 (stereo not drawn) | 121 to 123 |
| CN(C)c1ccc(NC(=O)N(C)c2cccc(-c3ccc(CC(Nc4ccccc4C(=O)c4ccccc4)C(=O)O)cc3)c2)cc1 (stereo not drawn) | 130 |
| NC(=O)c1ccc(-c2ccc(-c3ccn(C(CC(=O)OCc4ccccc4)C(=O)NC(CO)Cc4ccccc4)c3)cc2)cc1 (stereo not drawn) | 192 to 194 |
| O=C(O)c1cc2ccc(OCc3ccccc3)cc2o1 | 199 to 201 |

| Compound | melting point [°C] |
| --- | --- |
| CC(C)c1[nH][nH]c(=O)c1Cc1ccc2ccccc2c1 | 143 to 145 |
| O=C(O)c1ccc(S(F)(F)(F)(F)F)cc1[N+](=O)[O-] | 165 to 167 |
| O=C(CN1CC(S(=O)Cc2ccc(C(=O)O)cc2)C1=O)NCCCCCCc1ccc(Cl)cc1 (stereo not drawn) | 195 to 197 |
| O=C1NC(=O)C(CC#Cc2ccc(Cl)cc2)(Sc2nc3ccccc3o2)S1 (stereo not drawn) | 137 to 139 |
| COC(=O)Nc1cn2cc(S(=O)(=O)c3ccccc3)ccc2n1 | 300 |
| Nc1cc(Cl)ccc1Oc1c(C(=O)O)n(Cc2ccccc2)c2ccccc12 | 218 to 219 |
| Cc1noc(NS(=O)(=O)c2ccccc2-c2ccc(-c3ccncn3)cc2)c1C | 211 to 214 |
| O=c1ccc(-c2ccncn2)c[nH]1 | > 250 |
| O=C(O)CCCC(=O)CCCc1ccccc1CCCC(=O)O | 87 |
| CCCCN(CCCC)C(=O)NCCc1ccc(-c2csc(NC(=O)OC(C)(C)C)n2)cc1 | 70 to 75 |
| CNC(=O)Cn1c(-c2ccc(F)cc2)nc2cccnc21 | 215 to 217 |
| O=c1oc(-c2ccc(OCCc3ccccc3)cc2)cc(O)c1SCCc1ccccc1 | 103 to 106 |
| CN1Cc2c(-c3nc(C4CC4)no3)ncn2-c2ccccc2C1=O | 202 to 203 |
| Cc1cccc(C)c1CNc1cc(Br)cc2c1nc(C)n2O | 277 |
| COc1c(C(O)CNC(C)(C)Cc2c(C)cc(C)cc2C)ccc(O)c1O (stereo not drawn) | 98 to 105 |
| CC(=O)C(CC=Cc1ccccc1Cl)(CCC(=O)O)c1ccccc1 (stereo not drawn) | 95 to 110 |
| COc1ccc(Cc2nc3cnc4cc(-c5ccccc5)ccc4c3n2CCOc2ccccc2)cc1 | 205 to 206 |
| C=CC1(C=C)OC(C(=O)O)Oc2ccc(Cl)cc21 (stereo not drawn) | 144 |

Results, then the molecule that gave them:

| melting point [°C] | Compound |
| --- | --- |
| 159 to 161 | CCCCNc1cc(C(=O)OCC#N)cc(S(N)(=O)=O)c1Oc1ccccc1 |
| 192 to 194 | COc1cc(OC)c(-c2cccs2)cc1C#CC(=O)c1cc(OC)c(OCC(=O)O)c(OC)c1 |
| 155 to 158 | CS(=O)CC(C)(C)NC(=O)c1c(I)cccc1-c1ccc(C(F)(F)F)cc1 (stereo not drawn) |
| 119 to 120 | CCOc1cc(OCC)nc(N2CCN(Cc3ccc(CNC(C)=O)cc3)CC2)n1 |
| 126 to 127 | CCOC(=O)C(=O)c1oc(-n2ccnc2C)nc1-c1ccc(Cl)cc1 |
| 145 to 147 | CCCc1c(C(=O)OCC)nc2c(CCC)c3oc(C(=O)OCC)cc(=O)c3cc2c1Cl |
| 114 to 117 | Fc1cccc(OC2CN(C3CCC(c4c[nH]c5ccccc45)CC3)C2)c1 (stereo not drawn) |
| 228 | COc1ccc(-c2ccncc2OC2SCC(O)C(O)C2O)cc1 (stereo not drawn) |
| 143 to 145 | COc1cc2c(cc1Cl)C(O)Cc1ccc(F)cc1S2 (stereo not drawn) |
| 158 to 159 | O=C(O)c1cn(OCC2CN(Cc3ccccc3)CCN2Cc2ccccc2)c2cc(F)c(F)cc2c1=O (stereo not drawn) |
| 208 to 209 | COc1ccc(CNc2nc(OCc3ccccn3)ncc2C(N)=O)cc1Cl |
| 165 to 167 | COc1ccc(NN=C(Sc2cc(C)cc(C)c2)C(C)=O)cc1 |
| > 300 | COc1cccc(CNC(=O)c2nc3sc(C(=O)O)c(C)c3c(=O)[nH]2)c1 |
| 85 to 87 | COC(=O)c1cccc(-c2ccc(OC)c(OC3CCCC3)c2)c1 |
| 215 to 223 | Cc1cn(-c2c(F)cc3c(=O)c(C(=O)O)cn(C4CC4)c3c2F)cn1 |
| 89 to 90 | COc1ccc(CCN(C)CCCNc2c(Cl)cn[nH]c2=O)cc1OC |
| 105 to 110 | Cc1c(C(=O)N(CC(=O)O)c2ccc(OCC(C)(C)C)c(C#N)c2)cnn1-c1ccc(F)cc1 |
| 283 to 284 | COc1ccc(C(=O)Nc2cccc(C(=O)O)c2)c2c1OCCO2 |
| 139 | COc1ccc(CC(C)NC(C)=O)cc1OCc1ccccc1 (stereo not drawn) |
| 68 to 70 | CCC1COC(=O)C(=CC(=O)OC)N1 (stereo not drawn) |
| 135 to 140 | CN1C(=O)CC2(c3ccccc3)CCCC3OC32C1=O (stereo not drawn) |

| melting point [°C] | Compound |
| --- | --- |
| 183 to 185 | C[C@]12CCC(=O)N[C@@H]1CCc1cc(Sc3ccccc3)ccc12 |
| 134 | CNC(=O)CCC(=O)c1c(OC)cccc1OC |
| 217 | CC1(C)CC(O)=CC2(C1)NCC(c1cccc(O)c1)O2 (stereo not drawn) |
| 30 to 31.5 | C=C(C)COc1ccc(CC(=O)OC)cc1[N+](=O)[O-] |
| 142 to 143 | CCOC(=O)c1cnc2nn(C)cc2c1N1CCN(C)CC1 |
| 224 to 225 | CS(=O)(=O)CC(=O)c1[nH]c2cc(Br)c(Cl)cc2c1-c1ccccc1 |
| > 86 | COc1ccc(F)cc1Oc1c(NS(=O)(=O)c2ccc(C(C)(C)C)cc2)ncnc1OC[C@@H]1COC(C)(C)O1 |
| 66 to 68 | COCOc1ccc(C(=O)CI)c(OCc2ccccc2)c1 |
| 225 to 227 | CC1CN(c2cc3c(cc2F)C(=O)c2nc4ccccc4c(=O)n2-3)CCN1 (stereo not drawn) |
| 219 to 220 | CN(C)CCNc1ccc(C=O)c2sc3ccc(O)cc3c(=O)c12 |
| 173 to 175 | CC(=O)Nc1c([N+](=O)[O-])cc(Br)c2c1CN(C(C)=O)CC2 |
| 108 to 110 | OCc1cccc2c1CCc1ccccc1-2 |
| 100 to 101 | CCOC(=O)C=Cc1c(OC)cncc1OC |
| 110 to 113 | CCCc1c(OCCCOc2ccc(-c3cscn3)c(OC)c2CCC)ccc2c1OC(CCC(=O)O)CC2 (stereo not drawn) |
| 128 to 130 | CCOc1nc2c(cnn2CC)nc1C(=O)O |
| 168 | CN1CCCC(Nc2nc3ccccc3[nH]2)CC1 (stereo not drawn) |
| 75 to 82 | COc1c2c(c(OC)c(OC)c1OC)CCC(CCI)CC2 |
| 137 to 138 | Cc1ccc(Cc2cnc(CCCOc3cccc(CN4CCCCC4)c3)[nH]c2=O)cn1 |
| 124 | COC(=O)c1ccc(NCc2cc(S(C)(=O)=O)ccc2OCc2ccccc2)cc1 |
| 285 | COc1cccc(N2CCN(c3cc4c(cc3F)ncc3c4c(=O)c(C(=O)O)cn3C)CC2C)c1 (stereo not drawn) |
| 147 to 148 | CC(C)(C)c1csc(COc2cccc(C(=O)Nc3cc(CCCS(=O)(=O)c4ccc(Cl)cc4)ccc3OCC(N)=O)c2)n1 |
